# Reference: patent US20200270309A1, “MALEIMIDE GROUP-MODIFIED ANGIOGENESIS INHIBITOR HM-1 AND USE THEREOF” (NANJING ANJI BIOLOGICAL TECHNOLOGY CO., LTD, priority 2017, published 2020)
# Peptide text beside a SMILES is read from it. * marks the point of attachment. X66 = O=C1C=CC(=O)N1c1cccc(CCCCCCCC(=O)*)c1
# Tested on: xylene-induced ear swelling
# Test: Xylene-induced mouse ear swelling
# Type: in vivo
# Conditions: Kunming mice, dose 2 mg/kg, injected once a day for 5 days
# Method: Kunming mice were taken, a normal saline group was taken as a blank control group, an aspirin group (200 mg/kg) was taken as a positive control group, and X1-X90 administration groups were taken as test groups. The mice were injected once a day for 5 consecutive days. The blank control group was given an equal volume of normal saline. One hour after the last administration, 0.05 mL of xylene was applied to both sides of the right ear of each mouse to cause inflammation, while no drug was applied to the left ear as a normal ear. Two hours later, the mice were put to death by dislocation. Two ears were cut along the auricle. Ear pieces were taken with a puncher and weighed, and the swelling degree and the swelling rate were calculated. Swelling degree=right ear piece weight-left ear piece weight, swelling rate=(swelling degree/left ear piece weight)*100%. Statistical t-test was conducted on the experimental results. *P<0.05 indicates significant difference, and **P<0.01 indicates extremely significant difference.
smiles,measurement,setting,value
C[C@H](NC(=O)CNC(=O)[C@H](CCCNC(=N)N)NC(=O)CCCCCCCc1cccc(N2C(=O)C=CC2=O)c1)C(=O)N[C@@H](CC(=O)O)C(=O)N[C@@H](CCCNC(=N)N)C(=O)N[C@@H](C)C(=O)NCC(=O)NCC(=O)NCC(=O)NCC(=O)N[C@@H](CCCNC(=N)N)C(=O)NCC(=O)N[C@@H](CC(=O)O)C(=O)O [X31] (X66-RGADRAGGGGRGD-OH),Swelling degree,right minus left ear piece weight 2 h after xylene,3.16 ± 0.55 mg
same,Inhibition rate (%),xylene-induced ear swelling,16.85%
